Assay [1] deals with T1, human AR (androgen receptor) (Homo sapiens, UniProt P10275).
T1 construct: expressed in transfected cells; host or cells: 293 cells (293-AR lysate)
T1 sequence (P10275 1-920): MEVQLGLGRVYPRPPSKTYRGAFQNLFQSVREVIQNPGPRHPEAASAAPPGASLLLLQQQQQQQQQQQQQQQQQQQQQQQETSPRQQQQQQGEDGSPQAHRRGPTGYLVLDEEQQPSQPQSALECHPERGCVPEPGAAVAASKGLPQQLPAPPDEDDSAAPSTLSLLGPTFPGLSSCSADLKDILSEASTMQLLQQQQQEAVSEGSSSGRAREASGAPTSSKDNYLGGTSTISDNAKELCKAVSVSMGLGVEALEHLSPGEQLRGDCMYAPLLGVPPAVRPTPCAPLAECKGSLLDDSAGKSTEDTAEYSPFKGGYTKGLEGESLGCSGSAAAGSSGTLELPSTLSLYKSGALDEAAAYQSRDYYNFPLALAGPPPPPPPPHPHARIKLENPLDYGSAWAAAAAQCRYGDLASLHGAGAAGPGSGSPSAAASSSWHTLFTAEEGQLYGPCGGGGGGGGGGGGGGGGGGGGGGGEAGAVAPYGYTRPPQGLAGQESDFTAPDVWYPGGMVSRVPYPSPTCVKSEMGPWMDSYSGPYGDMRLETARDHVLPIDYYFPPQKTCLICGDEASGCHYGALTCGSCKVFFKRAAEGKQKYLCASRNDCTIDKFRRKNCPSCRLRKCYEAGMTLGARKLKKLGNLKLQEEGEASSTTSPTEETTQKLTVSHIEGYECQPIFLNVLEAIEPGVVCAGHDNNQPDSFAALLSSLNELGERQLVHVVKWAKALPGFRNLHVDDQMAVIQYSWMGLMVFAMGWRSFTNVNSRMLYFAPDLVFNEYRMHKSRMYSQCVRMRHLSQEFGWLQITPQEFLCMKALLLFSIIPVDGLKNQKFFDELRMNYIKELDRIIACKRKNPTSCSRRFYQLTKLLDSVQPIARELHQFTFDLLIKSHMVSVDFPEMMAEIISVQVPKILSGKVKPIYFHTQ
Briefly: Steroid hormone nuclear receptor binding assay (AR binding). As for the experimental part: Cell lysates from 293 cells overexpressing human GR (glucocorticoid receptor), AR (androgen receptor), MR (mineralocorticoid receptor) or PR (progesterone receptor) are used for competition binding assays to determine Ki values for test compounds. Briefly, competition binding assays are run in a buffer containing 20 mM Hepes, pH 7.6, 0.2 mM EDTA, 75 mM NaCl, 1.5 mM MgCl2, 20% glycerol, 20 mM sodium molybdate, 0.2 mM DTT, 20 ug/ml aprotinin and 20 ug/ml leupeptin, using either 0.3 nM ^3H-dexamethasone for GR binding, 0.36 nM ^3H-methyltrienolone for AR binding, 0.25 nM ^3H-aldosterone for MR binding, or 0.29 nM ^3H-methyltrienolone for PR binding, and either 20 ug 293-GR lysate, 22 ug 293-AR lysate, 20 ug 293-MR lysate or 40 ug 293-PR lysate per well. Competing compounds are added at various concentrations ranging from about 0.01 nM to 10 μM. Non-specific binding is determined in the presence of 500 nM dexamethasone for GR binding, 500 nM aldosterone for MR binding, or 500 nM methyltrienolone for AR and PR binding. The binding reaction (140 μl) is incubated for overnight at 4° C., then 70 μl of cold charcoal-dextran buffer (containing per 50 ml of assay buffer, 0.75 g of charcoal and 0.25 g of dextran) is added to each reaction. Plates are mixed 8 minutes on an orbital shaker at 4° C. Plates are then centrifuged at 3,000 rpm at 4° C. for 10 minutes. An aliquot of 120 μl of the mix is transferred to another 96-well plate and 175 μl of Wallac Optiphase “Hisafe 3” scintillation fluid is added to each well. Plates are sealed and shaken vigorously on an orbital shaker. After an incubation of 2 hrs, plates are read in a Wallac Microbeta counter. The data is used to calculate an IC50 and % Inhibition at 10 μM. The Kd for ^3H-dexamethasone for GR binding, ^3H-methyltrienolone for AR binding, ^3H-aldosterone for MR binding, or ^3H-methyltrienolone for PR binding, is determined by saturation binding. The IC50 values for test compounds are converted to Ki using Cheng-Prusoff equation and the Kd determined by saturation binding assay.
Binding assay protocols for steroid hormone nuclear receptors similar to those described above can be readily designed by the ordinarily skilled artisan.

In assay [2] the target is T2, human androgen receptor (AR) (Homo sapiens, UniProt P10275).
T2 construct: expressed in transfected cells; host or cells: mouse myoblast C2C12 cells, transiently co-transfected with FuGENE
T2 sequence (P10275 1-920): T1 sequence (P10275 1-920)
As to the kind of experiment: C2C12 AR/ARE reporter assay. The format is cell-based. To be noted: for EC50: mouse myoblast C2C12 cells, luciferase reporter, 48 h; for C2C12 % Efficacy: versus maximum stimulation obtained with 10 nM methyltrienolone. How it is done: As an indicator of agonist activity in muscle tissue, the C2C12 AR/ARE reporter assay is performed. Briefly, mouse myoblast C2C12 cells are co-transfected using FuGENE™. […] Cells are transfected in T150 cm^2 flasks in DMEM media with 4% or 10% Fetal Bovine Serum (FBS). After a 5 hour incubation, transfected cells are trypsinized, plated in 96 well dishes in DMEM media containing 10% charcoal-stripped FBS, incubated for 2 h and then exposed to various concentrations of test compounds ranging from about 0.01 nM to 10 μM. After 48 h of incubations with compounds, cells are lysed and luciferase activity is determined using standard techniques. Data is fit to a 4 parameter-fit logistics to determine EC50 values. The % efficacy is determined versus maximum stimulation obtained with 10 nM methyltrienolone. […]

Another assay concerns castrated male ICR mice. Briefly: In vivo mouse model of efficacy and selectivity (castrated mice, tissue wet weights). As for the experimental part: Male ICR mice (8 weeks old) are castrated according to approved procedures (Taconic, N.Y.) and allowed to waste for eight weeks. Age-matched sham-operated mice are also prepared. (Sham-operated mice are animals that have been exposed to the same surgical procedures as castrated animals except their testes are not removed.) Animals are housed in a temperature-controlled room (24° C.) with a reversed 12 hour light/dark cycle (dark 10:00/22:00) and water and food are available ad libitum.
Test compounds are administered to the animals using conventional vehicles. For example, for oral dosing 1% Sodium Carboxymethylcellulose (CMC)+0.25% Tween 80 in sterile H2O can be used for oral formulation and 6% Ethyl-alcohol (EtOH)+94% cyclodexitrane (CDX) can be used for subcutaneous injections. Castrated mice treated with Testosteron Enanthate (TE) (10 mg/kg/d) are used as a treatment positive control whereas castrated mice treated only with vehicle are used as treatment negative control. In addition, sham-operated mice treated with vehicle only are used as control for the surgical method.
Test animals are dosed over a two week timeframe, orally or subcutaneously, with, for example, 0.3, 1, 3, 10 or 30 mg/kg/day of a compound of the present invention. After the two-week treatment, as an indicator of activity the wet weight of the Levator Ani muscle in the test group is determined and compared to the weight in the castrated, vehicle-only control group. The percent efficacy is then calculated as follows: (Wet weight in treatment group/Wet weight in control group)×100 As an indicator of tissue selective activity, the wet weight of the seminal vesicle from test animals is similarly compared to the weight of the seminal vesicles from the castrated, vehicle-only group. In addition, a comparison of the wet weight of the prostate glands from the drug-treated group, to the wet weight of the prostate glands removed from the castrated, vehicle-only group, may also be used as an indicator of tissue selective activity.
Table II (see below) provides % efficacy data for a select sample of exemplified compounds of the present invention in an animal model essentially as described above. Animal models of efficacy and selectivity similar to those described above can be readily designed and performed by the ordinarily skilled artisan, for example, Eisenberg and Gilbert, J Pharmacol Exp Ther. 1950, 99(1), 38-44, provides an alternative rat model that may be employed to show in vivo efficacy.)

Where [3] appears, read: AR binding Ki (nM), 293-AR cell lysate, 3H-methyltrienolone competition.
Where [4] appears, read: C2C12, read-out: C2C12 % Efficacy, versus maximum stimulation obtained with 10 nM methyltrienolone, average.

The text below walks through data of patent US7807691B2, “Substituted N-arylpyrrolidines as selective androgen receptor modulators” (Eli Lilly and Company, priority 2005, dated 2010).

Structures are written as SMILES. Read-outs that look alike come from different tables or passages of the source.

As to `Cc1c(N2CCCC2c2ccc3c(c2)OCO3)ccc(C#N)c1Cl` (stereo not shown) [Example 12], the Ki in assay [1] (setting [3]) came to 2.2 nM. Further, the Emax in assay [2] (setting [4]) was 95.6%. Besides, the EC50 in assay [2] (C2C12 EC50(nM), average) was found to be 12.4 nM. The “% Efficacy: (ANOVA, p < 0.05)” value with castrated male ICR mice (Levator Ani muscle wet weight vs castrated vehicle-only control x100, 10 mg/kg/d, po, two weeks) worked out at 164%. Besides, the “Seminal vesicle and/or prostate weight gain” value with castrated male ICR mice (tissue selectivity indicator, castrated mice) is given as “no weight gain”.
`Cc1c(N2CCCC2c2nnc(N)o2)ccc(C#N)c1Cl` (stereo not shown) [Example 30, 4-[2-(5-amino-1,3,4-oxadiazol-2-yl)pyrrolidin-1-yl]-2-chloro-3-methylbenzonitrile] came in with an inhibitory constant (Ki) in assay [1] (setting [3]) of 18.7 nM. The Emax in assay [2] (setting [4]) was 95.7%. In assay [2] (C2C12 EC50(nM), average), this molecule displayed a concentration giving a half-maximal response (EC50) of 37.9 nM.
On to `Cc1c(N2CCCC2c2nnco2)ccc(C#N)c1Cl` (stereo not shown) [Example 26, 2-chloro-3-methyl-4-[2-(1,3,4-oxadiazol-2-yl)-1-pyrrolidinyl]benzonitrile], for which, in assay [1] (setting [3]), the Ki amounted to 5.4 nM. Moreover, in assay [2] (setting [4]), the Emax was 82.7%. The EC50 in assay [2] (C2C12 EC50(nM), average) was 4.2 nM.
Turning to `CCC1CCC(c2ccccc2)N1c1ccc(C#N)c(Cl)c1` (single isomer, unassigned) [Example 22b, 2-Chloro-4-(2-ethyl-5-phenyl-pyrrolidin-1-yl)-benzonitrile], the inhibition constant (Ki) in assay [1] (setting [3]) came out at 39.9 nM. In assay [2] (C2C12 EC50(nM), average), this molecule showed an EC50 of 25 nM. The “C2C12 % Efficacy” value in assay [2] (average) is 80.6%.
`N#Cc1ccc(N2CCCC2c2ccc3c(c2)OCO3)cc1C(F)(F)F` (stereo not shown) [Example 19] displayed a Ki in assay [1] (setting [3]) of 17.6 nM. In assay [2] (setting [4]), the Emax was -12.4%.
As for `CC1(c2ccc3c(c2)OCO3)CCCN1c1ccc(C#N)c(C(F)(F)F)c1` (stereo not shown) [Example 20], the inhibition constant (Ki) in assay [1] stood at 21.1 nM. Also, the Emax in assay [2] (C2C12, read-out: C2C12 % Efficacy) was determined as 4.8%. For the same molecule, in assay [2] (average, read-out: C2C12 EC50), the EC50 was found to be 516 nM.
Molecule `Cc1c(N2CCCC2c2ccncc2)ccc(C#N)c1Cl` (stereo not shown) [Example 11] had an inhibition constant Ki in assay [1] (setting [3]) of 6 nM. Besides, the Emax in assay [2] (setting [4]) came out at 76.8%. Besides, the response in assay [2] (C2C12 EC50(nM), average) was half-maximal at 6.8 nM (EC50).
Turning to `CCC1CCC(c2ccccc2)N1c1ccc(C#N)c(Cl)c1C` (mixture of isomers) [Example 23, 2-Chloro-4-(2-ethyl-5-phenyl-pyrrolidin-1-yl)-3-methyl-benzonitrile], the affinity in assay [1] (setting [3]), expressed as Ki, was 27.1 nM. Moreover, the Emax in assay [2] (setting [4]) was 70.1%. In assay [2] (C2C12 EC50(nM), average), this molecule returned a 50% effective concentration (EC50) of 131 nM.
The molecule `CCC1CCC(c2ccccc2)N1c1ccc(C#N)c(Cl)c1` (single isomer, unassigned) [Example 22a, 2-Chloro-4-(2-ethyl-5-phenyl-pyrrolidin-1-yl)-benzonitrile] yielded a Ki in assay [1] (setting [3]) of 122 nM. Also, in assay [2] (C2C12 EC50(nM), average), the midpoint of the response, the EC50, lay at 32.4 nM. Moreover, the “C2C12 % Efficacy” value in assay [2] (average) is on record as 92.4%.
`Cc1nnc(C2CCCN2c2ccc(C#N)c(Cl)c2C)[nH]1` (stereo not shown) [Example 29, 2-chloro-3-methyl-4-[2-(5-methyl-4H-1,2,4-triazol-3-yl)pyrrolidin-1-yl]benzonitrile] showed a Ki in assay [1] (setting [3]) of 58.9 nM. In assay [2] (setting [4]), the Emax came to 83.9%. Also, it took 378 nM to reach a half-maximal effect in assay [2] (C2C12 EC50(nM), average) (EC50).
In assay [1] (setting [3]), `Cc1nnc(C2CCCN2c2ccc(C#N)c(Cl)c2C)s1` (stereo not shown) [Example 28, 2-chloro-3-methyl-4-[2-(5-methyl-1,3,4-thiadiazol-2-yl)pyrrolidin-1-yl]benzonitrile] gave a Ki of 9 nM. Further, the Emax in assay [2] (setting [4]) stood at 74.3%. In assay [2] (C2C12 EC50(nM), average), the midpoint of the response, the EC50, lay at 24.4 nM.
Take `CCC1CCC(c2ccccc2)N1c1ccc(C#N)c(Cl)c1` (single isomer, unassigned) [Example 22c, 2-Chloro-4-(2-ethyl-5-phenyl-pyrrolidin-1-yl)-benzonitrile]: the Ki in assay [1] (setting [3]) is 39.8 nM. Also, a half-maximal effect in assay [2] (C2C12 EC50(nM), average) (EC50) was put at 135 nM. Also, the “C2C12 % Efficacy” value in assay [2] (average) is reported as 61.3%.
Take `Cc1c(N2CCCC2c2ccc(Cl)cc2)ccc(C#N)c1Cl` (stereo not shown) [Example 2]: the Ki in assay [1] (setting [3]) amounted to 4.3 nM. The Emax in assay [2] (setting [4]) turned out to be 61%. For the same molecule, a half-maximal response in assay [2] (C2C12 EC50(nM), average) (EC50) required 36.7 nM.
The like results for `Cc1c(N2CCCC2c2ccccn2)ccc(C#N)c1Cl` (stereo not shown) [Example 10] were, in that order, 4.7 nM, 79.8% and 40.8 nM.
The like results for `CSc1cccc(C2CCCN2c2ccc(C#N)c(Cl)c2C)c1` (stereo not shown) [Example 13] were, in that order, 5.8 nM, 84.7% and 9.7 nM.
In assay [1] (setting [3]), `COc1cccc(C2(C)CCCN2c2ccc(C#N)c(Cl)c2)c1` (stereo not shown) [Example 18] displayed an inhibitory constant (Ki) of 24.4 nM. In addition, the Emax in assay [2] (setting [4]) stood at 77.9%. The molecule further came in with an EC50 in assay [2] (C2C12 EC50(nM), average) of 9.8 nM.
In assay [1] (setting [3]), `COc1ccccc1C1CCCN1c1ccc(C#N)c(Cl)c1C` (stereo not shown) [Example 6] displayed an inhibition constant Ki of 7 nM. Moreover, the Emax in assay [2] (setting [4]) stood at 81.7%. The same molecule displayed a half-maximal effective concentration (EC50) in assay [2] (C2C12 EC50(nM), average) of 177 nM.
